Measurements taken from patent US10287291B2, “Seco-cyclopropapyrroloindole compounds, antibody-drug conjugates thereof, and methods of making and use” (priority 2016, dated 2019).
Where two headings read alike, the source gives them in different places.

How the values were obtained:
[1] = system: N87 (human gastric (stomach) cancer cell line); experiment: 72 hr ATP luminescence proliferation inhibition, N87; format: cell-based; conditions: read-out: Proliferation Inhibition of Cancer Cells EC50, N87
Description: (§1) Proliferation inhibition was measured using a 72 hr ATP luminescence assay (Cheng et al., U.S. Pat. No. 8,394,922 B2 (2013)).
(§2) Proliferation inhibition was measured against: (a) H226 (human mesothelioma (lung) cancer cell line); (b) N87 (human gastric (stomach) cancer cell line); (c) OVCAR3 (human ovarian cancer cell line); (d) HCT116 (human colon cancer cell line); and (e) HCT116/VM46 (multidrug and paclitaxel resistant subline of HCT116).

[2] = system: OVCAR3 (human ovarian cancer cell line); experiment: 72 hr ATP luminescence proliferation inhibition, OVCAR3; format: cell-based
Description: as §1, §2

[3] = system: H226 (human mesothelioma (lung) cancer cell line); experiment: 72 hr ATP luminescence proliferation inhibition, H226; format: cell-based
Description: as §1, §2

[4] = system: HCT116 (human colon cancer cell line); experiment: 72 hr ATP luminescence proliferation inhibition, HCT116; format: cell-based
Description: as §1, §2

[5] = system: HCT116/VM46 (multidrug and paclitaxel resistant subline of HCT116); experiment: 72 hr ATP luminescence proliferation inhibition, HCT116/VM46; format: cell-based, human; conditions: read-out: Proliferation Inhibition of Cancer Cells EC50, HCT116/VM46
Description: as §1, §2

[6] = Homo sapiens, OVCAR-3, read-out: Proliferation Inhibition of Cancer Cells EC50, OVCAR3
[7] = Homo sapiens, NCI-H226, read-out: Proliferation Inhibition of Cancer Cells EC50, H226
[8] = Homo sapiens, HCT-116, read-out: Proliferation Inhibition of Cancer Cells EC50, HCT116
[9] = Homo sapiens, HCT-116/VM46, HCT116/VM46 cell line
[10] = read-out: Proliferation Inhibition of Cancer Cells EC50, OVCAR3
[11] = read-out: Proliferation Inhibition of Cancer Cells EC50, H226
[12] = read-out: Proliferation Inhibition of Cancer Cells EC50, HCT116

| SMILES | EC50 ([1]; Homo sapiens) | EC50 [2, 6] | EC50 [3, 7] | EC50 [4, 8] | EC50 [5, 9] | EC50 [2, 10] | EC50 [3, 11] | EC50 [4, 12] | EC50 ([5]; HCT116/VM46 cell line) | EC50 [1] |
| --- | --- | --- | --- | --- | --- | --- | --- | --- | --- | --- |
| O=C(c1cc2c3c(cc(O)c2[nH]1)N(C(=O)c1cc2cc(OCCO)ccc2[nH]1)C[C@H]3CCl)N1CCOCC1 [Ia-08] | 1.3 nM | 2.1 nM | 3.4 nM |  |  |  |  |  |  |  |
| O=C(c1cc2c3c(cc(O)c2[nH]1)N(C(=O)c1cc2cc(OCCC4CC4)ccc2[nH]1)C[C@H]3CCl)N1CCOCC1 [Ia-07] | 0.81 nM | 0.41 nM | 0.72 nM | 0.67 nM | 0.67 nM |  |  |  |  |  |
| Nc1ccc2[nH]c(C(=O)Nc3ccc4[nH]c(C(=O)N5C[C@@H](CCl)c6c5cc(O)c5[nH]c(C(=O)N7CCOCC7)cc65)cc4c3)cc2c1 [Ic-01] | 1.5 nM | 0.89 nM | 0.91 nM | 0.43 nM | 0.75 nM |  |  |  |  |  |
| CNCCN(CCOCCO)C(=O)c1cc2c3c(cc(O)c2[nH]1)N(C(=O)c1cc2cc(OC)ccc2[nH]1)C[C@H]3CCl [Ia-24] |  |  |  |  |  | 250 nM | 250 nM | 250 nM | 250 nM |  |
| CN1CCN(C(=O)c2cc3c4c(cc(O)c3[nH]2)N(C(=O)c2cc3cc(N)ccc3[nH]2)C[C@H]4CCl)CC1 [Ia-26] |  |  |  |  |  | 2.7 nM | 9.5 nM | 4.1 nM | 12 nM |  |
| COCCCOc1ccc2[nH]c(C(=O)N3C[C@@H](CCl)c4c3cc(O)c3[nH]c(C(=O)N5CCOCC5)cc43)cc2c1 [Ia-09] | 0.016 nM | 0.025 nM | 0.055 nM |  |  |  |  |  |  |  |
| COc1ccc2[nH]c(C(=O)N3C[C@@H](CCl)c4c3cc(O)c3[nH]c(C(=O)N5CCN(C)CC5)cc43)cc2c1 [Ia-20] |  |  |  |  |  | 1.5 nM | 6.5 nM | 1.9 nM | 2.6 nM | 3.5 nM |
| COc1cc2cc(C(=O)N3C[C@@H](CCl)c4c3cc(O)c3[nH]c(C(=O)N5CCOCC5)cc43)[nH]c2c(OC)c1OC [Ia-30] | 0.045 nM | 0.032 nM | 0.018 nM | 0.033 nM | 0.097 nM |  |  |  |  |  |
| O=C(c1cc2c3c(cc(O)c2[nH]1)N(C(=O)c1cc2cc(OC4CCOCC4)ccc2[nH]1)C[C@H]3CCl)N1CCOCC1 [Ia-14] | 0.36 nM | 0.1 nM | 0.43 nM | 0.26 nM | 0.77 nM |  |  |  |  |  |
| CCOc1ccc2[nH]c(C(=O)N3C[C@@H](CCl)c4c3cc(O)c3[nH]c(C(=O)N5CCOCC5)cc43)cc2c1 [Ia-02] | 0.097 nM | 0.048 nM | 0.042 nM | 0.045 nM | 0.045 nM |  |  |  |  |  |
| CC[C@@H](CO)NC(=O)c1cc2c3c(cc(O)c2[nH]1)N(C(=O)c1cc2cc(OC)ccc2[nH]1)C[C@H]3CCl [Ia-23] |  |  |  |  |  | 1.1 nM | 7.5 nM | 0.9 nM | 1.9 nM | 2.6 nM |
| CCCOc1ccc2[nH]c(C(=O)N3C[C@@H](CCl)c4c3cc(O)c3[nH]c(C(=O)N5CCOCC5)cc43)cc2c1 [Ia-03] | 0.048 nM | 0.026 nM | 0.038 nM | 0.034 nM | 0.034 nM |  |  |  |  |  |
| CN(C)CCOc1ccc2[nH]c(C(=O)N3C[C@@H](CCl)c4c3cc(O)c3[nH]c(C(=O)Nc5ccc(O)cc5)cc43)cc2c1 [Ia-27] |  |  |  |  |  |  | 1.4 nM |  |  | 3.5 nM |
| O=C(c1cc2c3c(cc(O)c2[nH]1)N(C(=O)c1cc2cc(OC4CCCC4)ccc2[nH]1)C[C@H]3CCl)N1CCOCC1 [Ia-15] | 0.32 nM | 0.21 nM | 0.28 nM | 0.22 nM | 0.26 nM |  |  |  |  |  |
| Nc1ccc2[nH]c(C(=O)N3C[C@@H](CCl)c4c3cc(O)c3[nH]c(C(=O)N5CCOCC5)cc43)cc2c1 [Ia-19] | 3.1 nM | 1.1 nM | 4.2 nM | 3.2 nM | 3.5 nM |  |  |  |  |  |
| CNCCOc1ccc2[nH]c(C(=O)N3C[C@@H](CCl)c4c3cc(O)c3[nH]c(C(=O)N5CCOCC5)cc43)cc2c1 [Ia-17] |  |  |  |  |  | 18 nM | 1.6 nM | 19 nM | 25 nM | 36 nM |
| CC(C)COc1ccc2[nH]c(C(=O)N3C[C@@H](CCl)c4c3cc(O)c3[nH]c(C(=O)N5CCOCC5)cc43)cc2c1 [Ia-05] | 0.21 nM | 0.076 nM | 0.18 nM | 0.17 nM | 0.17 nM |  |  |  |  |  |
| COCCOc1ccc2[nH]c(C(=O)N3C[C@@H](CCl)c4c3cc(O)c3[nH]c(C(=O)N5CCOCC5)cc43)cc2c1 [Ia-01] | 0.007 nM |  | 0.014 nM |  |  |  |  |  |  |  |

| SMILES | EC50 ([1]; Homo sapiens) | EC50 [2, 6] | EC50 [3, 7] | EC50 [4, 8] | EC50 [5, 9] | EC50 [2, 10] | EC50 [3, 11] | EC50 [4, 12] | EC50 ([5]; HCT116/VM46 cell line) | EC50 [1] |
| --- | --- | --- | --- | --- | --- | --- | --- | --- | --- | --- |
| O=C(c1cc2c3c(cc(O)c2[nH]1)N(C(=O)c1cc2cc(OCC4CCCCC4)ccc2[nH]1)C[C@H]3CCl)N1CCOCC1 [Ia-10] | 0.15 nM |  | 0.25 nM |  |  |  |  |  |  |  |
| COc1ccc2[nH]c(C(=O)N3C[C@@H](CCl)c4c3cc(O)c3[nH]c(C(=O)N5CCOCC5)cc43)cc2c1 [Ia-11] | 1.2 nM | 0.52 nM | 1 nM | 0.58 nM | 0.92 nM |  |  |  |  |  |
| O=C(Nc1ccc2nc(C(=O)N3C[C@@H](CCl)c4c3cc(O)c3[nH]c(C(=O)N5CCOCC5)cc43)cn2c1)c1ccc(O)cc1 [Ib-01] |  |  |  |  |  | 2.8 nM | 2.39 nM | 3.2 nM | 3.5 nM | 3.6 nM |
| CC(C)Oc1ccc2[nH]c(C(=O)N3C[C@@H](CCl)c4c3cc(O)c3[nH]c(C(=O)N5CCOCC5)cc43)cc2c1 [Ia-13] | 0.48 nM | 0.12 nM | 0.32 nM | 0.18 nM | 0.24 nM |  |  |  |  |  |
| COCOc1ccc(C(=O)Nc2ccc3nc(C(=O)N4C[C@@H](CCl)c5c4cc(O)c4[nH]c(C(=O)N6CCOCC6)cc54)cn3c2)cc1 [Ib-02] |  |  |  |  |  | 0.53 nM | 1 nM | 0.64 nM | 1.9 nM | 0.96 nM |
| O=C(Nc1ccc2[nH]c(C(=O)N3C[C@@H](CCl)c4c3cc(O)c3[nH]c(C(=O)N5CCOCC5)cc43)cc2c1)c1ccc(O)cc1 [Id-01] | 2.3 nM | 1.1 nM |  | 0.93 nM |  |  |  |  |  |  |
| CC(C)CCOc1ccc2[nH]c(C(=O)N3C[C@@H](CCl)c4c3cc(O)c3[nH]c(C(=O)N5CCOCC5)cc43)cc2c1 [Ia-31] |  |  |  |  |  | 0.53 nM | 0.24 nM | 0.62 nM | 0.86 nM | 0.43 nM |
| CNCCN(C)C(=O)c1cc2c3c(cc(O)c2[nH]1)N(C(=O)c1cc2cc(OC)ccc2[nH]1)C[C@H]3CCl [Ia-21] |  |  |  |  |  | 1.2 nM | 0.99 nM | 0.85 nM | 0.5 nM | 2.2 nM |
| CN(C)CCOc1ccc2[nH]c(C(=O)N3C[C@@H](CCl)c4c3cc(O)c3[nH]c(C(=O)N5CCOCC5)cc43)cc2c1 [Ia-16] | 0.5 nM |  | 0.4 nM |  |  |  |  |  |  |  |
| CCCOc1ccc2[nH]c(C(=O)N3C[C@@H](CCl)c4c3cc(O)c3[nH]c(C(=O)N5CCCOCC5)cc43)cc2c1 [Ia-28] |  |  |  |  |  | 0.058 nM | 0.3 nM | 0.079 nM | 0.09 nM | 0.066 nM |
| O=C(c1cc2c3c(cc(O)c2[nH]1)N(C(=O)c1cc2cc(-c4ccccc4)ccc2[nH]1)C[C@H]3CCl)N1CCOCC1 [Ia-12] | 1.3 nM | 0.54 nM | 0.53 nM | 0.4 nM | 0.29 nM |  |  |  |  |  |
| O=C(c1cc2c3c(cc(O)c2[nH]1)N(C(=O)c1cc2cc(OC4CCC4)ccc2[nH]1)C[C@H]3CCl)N1CCOCC1 [Ia-06] |  |  |  |  |  | 0.32 nM | 0.47 nM | 0.36 nM | 0.36 nM | 0.56 nM |
| Nc1ccc2[nH]c(C(=O)N3C[C@@H](CCl)c4c3cc(O)c3[nH]c(C(=O)N5CCNCC5)cc43)cc2c1 [Ia-25] |  |  |  |  |  | 22 nM | 23 nM | 13 nM | 24 nM | 38 nM |
| COc1ccc2[nH]c(C(=O)N3C[C@@H](CCl)c4c3cc(O)c3[nH]c(C(=O)NCCOCCO)cc43)cc2c1 [Ia-22] |  |  |  |  |  | 1.1 nM | 5.1 nM | 1.2 nM | 1.2 nM | 1.9 nM |
| COCCOc1ccc2[nH]c(C(=O)N3C[C@@H](CCl)c4c3cc(O)c3[nH]c(C(=O)Nc5ccc(N)cc5)cc43)cc2c1 [Ia-29] |  |  |  |  |  |  | 0.63 nM |  |  | 0.26 nM |
| Nc1ccc(C(=O)Nc2ccc3[nH]c(C(=O)N4C[C@@H](CCl)c5c4cc(O)c4[nH]c(C(=O)N6CCOCC6)cc54)cc3c2)cc1 [Id-02] | 1.4 nM |  | 1.2 nM |  |  |  |  |  |  |  |
| NCCOc1ccc2[nH]c(C(=O)N3C[C@@H](CCl)c4c3cc(O)c3[nH]c(C(=O)N5CCOCC5)cc43)cc2c1 [Ia-18] | 48 nM | 12 nM | 32 nM | 25 nM | 19 nM |  |  |  |  |  |
| O=C(c1cc2c3c(cc(O)c2[nH]1)N(C(=O)c1cc2cc(OCC4CC4)ccc2[nH]1)C[C@H]3CCl)N1CCOCC1 [Ia-04] | 0.15 nM | 0.11 nM | 0.11 nM | 0.12 nM | 0.12 nM |  |  |  |  |  |
